± gives the expanded uncertainty stated by the source. Each block holds one molecule with its values, some of them ahead of it.
Settings: 298.15 K, Liquid

SMILES: CCCCCl [1-chlorobutane]
- mass density (13.52 kPa): 880.805 ± 0.6 kg/m3

- mass density (1.535 kPa): 797.775 ± 0.6 kg/m3
SMILES: CC(C)CO [2-methyl-1-propanol]

- mass density (5.605 kPa): 780.885 ± 0.75 kg/m3
SMILES: CC(C)(C)O [2-methylpropan-2-ol]

- mass density (20.22 kPa): 654.96 ± 1.4 kg/m3
SMILES: CCCCCC [hexane]

— the NIST ThermoML archive (doi:10.1021/je900436f)
